From patent US10336792B2, “Antimicrobial peptide dendrimers” (priority 2014, dated 2019)

Columns and labels:
[1] = 5(6)-Carboxyfluorescein leakage from lipid vesicles; details: 10 mM TRIS, 107 mM NaCl, pH 7.4; peptide added at 50 s
Description: Preparation A thin lipid film was prepared by evaporating a solution of 25 mg Egg PC or Egg PG in 1 mL MeOH/CHCl3 1/1 on a rotary evaporator (rt) and then in vacuo overnight. The resulting film was hydrated with 1 mL buffer (50 mM CF, 10 mM TIRS, 10 mM NaCl, pH 7.4) for 30 min, subjected to freeze-thaw cycles (7×) and extrusion (15×) through a polycarbonate membrane (pore size 100 nm). Extravesicular components were removed by gel filtration (Sephadex G-50) with 10 mM TRIS, 107 mM NaCl, pH 7.4. Final conditions: ˜2.5 mM Egg PC or Egg PG; inside: 50 mM CF, 10 mM TIRS, 10 mM NaCl, pH 7.4; outside: 10 mM TRIS, 107 mM NaCl, pH 7.4.
Experiment Egg PC or Egg PG stock solutions (37.5 μL) were diluted with a buffer (10 mM TRIS, 107 mM NaCl, pH 7.4) and placed in a thermostated fluorescence cuvette (25° C.) and gently stirred (total volume in the cuvette ˜3000 μL; final lipid concentration ˜31.25 μM). CF efflux was monitored at λem 517 nm (λex 492 nm) as a function of time after addition of 20 μL of peptide dendrimer in buffer (10 mM TRIS, 107 mM NaCl, pH 7.4) with final concentrations of 1, 5, 7.5, 10, 15, 20, 25, 30 μg/mL at t=50 s and 1.2% trition X-100 (30 μL, 0.012% final concentration) at t=300 s. Fluorescence intensities were normalized to fractional emission intensity I(t) using I(t)=(It−I0)/(I∞−I0) where I0 It at peptide dendrimer addition, I∞=It at saturation of lysis.
Bacterial membranes contain relatively large amounts of exposed anionic lipids, while the outer leaflet of the membranes of plants and animals is composed mainly of lipids with no net charge. The charge composition of such membranes can be mimicked with phospholipid vesicles. Large unilamellar vesicles (LUVs) composed of the neutral phospholipid with PC (phosphatidyl choline) or with PG (phosphatidyl glycerol) with negative charges were prepared encapsulating 5(6)-carboxyfluorescein (CF). […] The higher the concentration of MSt-112 the higher is the CF leakage (FIG. 6A). […] Overall the active AMPDs interact with the negatively charged membrane and release the CF.

[2] = test system: Pseudomonas aeruginosa (strain PA01); assay: microbe, parasite or virus in culture; format: cell-based; details: LB medium, serial 2/3 dilution, 37 °C, 18-24 h
Procedure, shortened: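 P. aeruginosa PAO1 grown overnight in LB, diluted to OD600 0.001 and mixed with ⅔-step peptide dilutions, then incubated at 37 °C for 18–24 h. After MTT staining, the lowest concentration with no visible growth was read by eye as the MIC.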

[3] = test system: Pseudomonas aeruginosa (strain PA01); format: cell-based; details: 25 μg/mL; 0, 1, 3, 6, 8, 24 h
Description: Cell viability was assayed against Pseudomonas aeruginosa (strain PA01). A colony of bacteria was grown in LB-medium overnight at 37° C. The concentration was quantified by measuring absorbance at 600 nm and diluted to OD600=0.1 (1×10^8 CFU/mL). The samples were prepared as stock solutions of 1 mg mL^−1 in H2O and diluted in LB to a concentration of 50 μg/mL in a 96-well microtiterplate (TPP, untreated). The sample solutions (50 μL) were mixed with the diluted bacterial suspension with an OD600 nm of 0.001 (50 μL). […] The plates were incubated at 37° C. for 1, 3, 6, 8 and 24 h. Each time point was assayed on a separate plate. For each test, two columns of the plate were kept for sterility control (SC, broth only) and growth control (GC, broth with bacterial inoculums, no antibiotics). After incubation 15 μL of WST-8 working solution (3.31 mg/mL WST-8 (Ochem Incorporation), 0.074 mg/mL PES (phenazine ethosulfate)) was added to each well and cells were incubated at 37° C. until GC had desired value. After the reaction took place, the final absorbance was read at 450 nm. For calculations, the value of the GC was set to 100% cell viability and the value of the negative control (no bacteria, SC) was set to 0% cell viability. […]
In order to determine the killing kinetics of AMPDs the amount of living bacteria was measured as a function of time after incubation with the AMPDs. […]

Question: Which “CF leakage from phosphatidylglycerol LUVs” value [1] does the source give for Polymyxin B [reference compound] here?
Answer: immediate leakage of CF

Question: What about the “MIC P. aeruginosa PAO1” value [2] of the same substance?
Answer: 2 µg/mL

Question: And the “killing kinetics (bacterial survival over 24 hours)” value [3]?
Answer: kill P. aeruginosa immediately
